Usually pIC50 stands for −log10 of the IC50, conventionally taken in molar units. The low end stands for a large IC50, the high end for a small IC50.

This passage reports IC50 results from US20250313548A1 (Actio Biosciences, Inc., priority 2023, published 2025).

pIC50: −log10 of the molar value. Some results are limits rather than exact numbers.

This experiment deals with human, KCNT1 (Homo sapiens (Human), UniProt Q5JUK3). Put plainly: FLIPR Tl/K Flux Assay. Type of experiment: cell-based. Particulars: HEK293 cells stably expressing human KCNT1; Tl+ flux stimulated with EC80 of agonist Loxapine. In short, it runs like this: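 Inhibition values come from a Hill-equation fit of % inhibition versus log concentration, using normalized fluorescence (Fmax/Fmin) over a 160 s read. The read followed stimulation with Tl+ plus EC80 agonist loxapine after 30 min compound pre-incubation at 25 °C. Cells were KCNT1-expressing HEK293, dye-loaded 1 h in pH 7.4 HEPES/HBSS with 5 mM probenecid.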
human, KCNT1, sequence (Q5JUK3 whole entry): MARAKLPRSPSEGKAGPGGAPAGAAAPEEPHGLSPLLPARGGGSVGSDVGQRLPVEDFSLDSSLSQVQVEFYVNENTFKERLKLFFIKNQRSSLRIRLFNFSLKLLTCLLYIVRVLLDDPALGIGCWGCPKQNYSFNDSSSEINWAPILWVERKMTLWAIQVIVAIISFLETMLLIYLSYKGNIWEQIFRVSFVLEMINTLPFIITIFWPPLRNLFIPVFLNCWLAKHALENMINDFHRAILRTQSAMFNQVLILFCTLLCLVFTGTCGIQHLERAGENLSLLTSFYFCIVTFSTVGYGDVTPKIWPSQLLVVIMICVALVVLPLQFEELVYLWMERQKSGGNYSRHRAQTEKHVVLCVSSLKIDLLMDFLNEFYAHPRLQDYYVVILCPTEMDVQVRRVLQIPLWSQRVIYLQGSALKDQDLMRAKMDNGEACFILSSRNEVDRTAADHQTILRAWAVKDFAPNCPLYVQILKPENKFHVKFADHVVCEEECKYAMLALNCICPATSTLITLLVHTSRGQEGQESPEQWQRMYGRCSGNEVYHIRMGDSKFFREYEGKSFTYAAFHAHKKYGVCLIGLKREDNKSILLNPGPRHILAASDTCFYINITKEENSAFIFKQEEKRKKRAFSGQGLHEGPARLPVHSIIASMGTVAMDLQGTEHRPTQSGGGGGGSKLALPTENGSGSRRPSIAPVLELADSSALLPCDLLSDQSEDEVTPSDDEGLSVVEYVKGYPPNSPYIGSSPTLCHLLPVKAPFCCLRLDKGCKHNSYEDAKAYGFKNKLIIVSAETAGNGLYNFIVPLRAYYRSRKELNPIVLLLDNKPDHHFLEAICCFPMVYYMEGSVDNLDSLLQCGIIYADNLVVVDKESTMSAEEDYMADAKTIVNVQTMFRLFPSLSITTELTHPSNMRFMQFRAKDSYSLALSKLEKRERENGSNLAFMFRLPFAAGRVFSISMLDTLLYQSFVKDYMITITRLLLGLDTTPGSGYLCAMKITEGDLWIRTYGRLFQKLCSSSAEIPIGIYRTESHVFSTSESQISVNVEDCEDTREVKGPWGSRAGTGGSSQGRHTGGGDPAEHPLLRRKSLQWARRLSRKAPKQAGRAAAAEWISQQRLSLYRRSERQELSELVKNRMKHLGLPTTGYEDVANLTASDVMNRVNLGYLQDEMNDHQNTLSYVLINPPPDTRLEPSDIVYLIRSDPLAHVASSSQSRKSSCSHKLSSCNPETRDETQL
As to `N#Cc1cccc(C(=O)N[C@H]2CCCCn3cc(-c4ccnc(C(F)(F)F)c4)cc32)c1` [Compound I-263a, (S)-3-Cyano-N-(2-(2-(trifluoromethyl)pyridin-4-yl)-6,7,8,9-tetrahydro-5H-pyrrolo[1,2-a]azepin-9-yl)benzamide], the pIC50 is over 6.60.

On to `Cc1ccc(C(=O)N[C@H]2CCc3nn(-c4ccnc(C(F)(F)F)c4)cc32)c(C)c1` [Compound I-93a], for which the pIC50 is over 6.60.

As for `CCOc1cc(-n2cc3c(n2)CCCC[C@H]3NC(=O)c2cc(C(F)(F)F)nn2C)ccn1` [Compound I-360b], the pIC50 was under 6.00.

`COc1cc(C(=O)N[C@H]2CCCn3nc(-c4ccnc(C(F)(F)F)c4)cc32)ccn1` [Compound I-330a, (S)-2-Methoxy-N-(2-(2-(trifluoromethyl)pyridin-4-yl)-4,5,6,7-tetrahydropyrazolo[1,5-a]pyridin-4-yl)isonicotinamide] had a pIC50 of over 6.60.

On to `COc1cc(-c2cc3n(n2)CC[C@@H]3NC(=O)c2ccc(F)c(C#N)c2)ccn1` [Compound I-257a, (S)-3-Cyano-4-fluoro-N-(2-(2-methoxypyridin-4-yl)-5,6-dihydro-4H-pyrrolo[1,2-b]pyrazol-4-yl)benzamide], for which the pIC50 is over 6.60.

For the molecule `CCOc1cc(C(=O)N[C@H]2CCCCn3nc(-c4ccnc(C(F)(F)F)c4)cc32)ccn1` [Compound I-283a, (S)-2-Ethoxy-N-(2-(2-(trifluoromethyl)pyridin-4-yl)-5,6,7,8-tetrahydro-4H-pyrazolo[1,5-a]azepin-4-yl)isonicotinamide], the pIC50 is over 6.60.

In turn, `Cn1nc(C(F)(F)F)cc1C(=O)N[C@@H]1CCn2nc(-c3ccnc(C4CC4)c3)cc21` [Compound I-68b] had a pIC50 of 6.00 to 6.30.

Molecule `O=C(N[C@H]1CCCc2nc(-c3ccnc(C4CC4)c3)oc21)c1cccc(OC(F)(F)F)c1` [Compound I-170a, (S)-N-(2-(2-Cyclopropylpyridin-4-yl)-4,5,6,7-tetrahydrobenzo[d]oxazol-7-yl)-3-(trifluoromethoxy)benzamide] showed a pIC50 of over 6.60.

`Cn1nc(C(C)(F)F)cc1C(=O)NC1CCCc2nn(-c3ccnc(C(F)(F)F)c3)cc21` (racemic) [Compound I-10, (rac)-3-(1,1-Difluoroethyl)-1-methyl-N-(2-(2-(trifluoromethyl)pyridin-4-yl)-4,5,6,7-tetrahydro-2H-indazol-4-yl)-1H-pyrazole-5-carboxamide] gave a pIC50 of over 6.60.

In turn, `Cn1nc(C(F)(F)F)nc1C(=O)N[C@H]1CCn2nc(-c3cc(C(F)(F)F)ncc3Cl)cc21` [Compound I-142a, (S)-N-(2-(5-Chloro-2-(trifluoromethyl)pyridin-4-yl)-5,6-dihydro-4H-pyrrolo[1,2-b]pyrazol-4-yl)-1-methyl-3-(trifluoromethyl)-1H-1,2,4-triazole-5-carboxamide] gave a pIC50 of over 6.60.

`O=C(NC1CCCc2nn(-c3ccnc(C(F)(F)F)c3)cc21)c1cccnc1` (racemic) [Compound I-32, (rac)-N-(2-(2-(Trifluoromethyl)pyridin-4-yl)-4,5,6,7-tetrahydro-2H-indazol-4-yl)nicotinamide] showed a pIC50 of under 6.00.

Molecule `Cn1nc(C(F)(F)F)cc1C(=O)N[C@H]1CCCn2nc(-c3cnnc(C(F)(F)F)c3)cc21` [Compound I-307a, (S)-1-Methyl-3-(trifluoromethyl)-N-(2-(6-(trifluoromethyl)pyridazin-4-yl)-4,5,6,7-tetrahydropyrazolo[1,5-a]pyridin-4-yl)-1H-pyrazole-5-carboxamide] showed a pIC50 of 6.00 to 6.30.

As to `N#Cc1cc(F)cc(C(=O)N[C@H]2CCCn3nc(-c4ccnc(C(F)(F)F)c4)cc32)c1` [Compound I-320a, (S)-3-Cyano-5-fluoro-N-(2-(2-(trifluoromethyl)pyridin-4-yl)-4,5,6,7-tetrahydropyrazolo[1,5-a]pyridin-4-yl)benzamide], the pIC50 is over 6.60.

For the molecule `Cc1cn(C)nc1C(=O)N[C@H]1CCCn2nc(-c3ccnc(C(F)(F)F)c3)cc21` [Compound I-416a], the pIC50 was 6.30 to 6.60.

Molecule `COc1cc(-c2nc3c(o2)[C@@H](NC(=O)c2ccnc(OC(F)(F)F)c2)CCC3)c(F)cn1` [Compound I-175a] had a pIC50 of over 6.60.

Molecule `COc1cc(-c2cc3c(cn2)CCCC3NC(=O)c2cc(C(F)(F)F)nn2C)ccn1` (centres unmarked) [Compound I-393] showed a pIC50 of under 6.00.

In turn, `Cn1ncc(C(=O)N[C@H]2CCCn3nc(-c4ccnc(C(F)(F)F)c4)cc32)c1C(F)F` [Compound I-421a] had a pIC50 of over 6.60.

`Cn1nc(CC(F)(F)F)cc1C(=O)N[C@H]1CCCn2nc(-c3ccnc(C(F)(F)F)c3)cc21` [Compound I-389a] showed a pIC50 of over 6.60.

With `O=C(N[C@H]1CCn2nc(-c3ccnc(C(F)(F)F)c3)cc21)c1cnc(C(F)(F)F)cn1` [Compound I-571a, (S)-5-(Trifluoromethyl)-N-(2-(2-(trifluoromethyl)pyridin-4-yl)-5,6-dihydro-4H-pyrrolo[1,2-b]pyrazol-4-yl)pyrazine-2-carboxamide], the pIC50 is over 6.60.

`Cn1nc(C2CCC2)cc1C(=O)N[C@H]1CCCn2nc(-c3ccnc(C(F)(F)F)c3)cc21` [Compound I-362a] had a pIC50 of over 6.60.

Take `O=C(N[C@H]1CCCc2nn(-c3ccnc(C4CC4)c3)cc21)c1cc(Cl)cc(C(F)(F)F)c1` [Compound I-5a]: the pIC50 is over 6.60.

Regarding `O=C(N[C@H]1CCn2nc(-c3ccnc(C(F)(F)F)c3)cc21)c1cnn(C(F)(F)F)c1C(F)(F)F` [Compound I-532a, (S)-1,5-bis(trifluoromethyl)-N-(2-(2-(trifluoromethyl)pyridin-4-yl)-5,6-dihydro-4H-pyrrolo[1,2-b]pyrazol-4-yl)-1H-pyrazole-4-carboxamide], the pIC50 is over 6.60.

Molecule `Cn1nc(C2CC2)cc1C(=O)NC1CCCc2nn(-c3ccnc(C(F)(F)F)c3)cc21` (racemic) [Compound I-11, (rac)-3-Cyclopropyl-1-methyl-N-(2-(2-(trifluoromethyl)pyridin-4-yl)-4,5,6,7-tetrahydro-2H-indazol-4-yl)-1H-pyrazole-5-carboxamide] showed a pIC50 of 6.30 to 6.60.

Take `Cn1nc(C(F)(F)F)cc1C(=O)N[C@@H]1CCc2nn(-c3ccnc(C(C)(F)F)c3)cc21` [Compound I-77b]: the pIC50 was 6.00 to 6.30.

Turning to `Cc1cnc(C(F)(F)F)cc1-c1cc2n(n1)CCCC[C@@H]2NC(=O)c1cc(C(F)(F)F)nn1C` [Compound I-311a, (S)-1-Methyl-N-(2-(5-methyl-2-(trifluoromethyl)pyridin-4-yl)-5,6,7,8-tetrahydro-4H-pyrazolo[1,5-a]azepin-4-yl)-3-(trifluoromethyl)-1H-pyrazole-5-carboxamide], the pIC50 was over 6.60.

Turning to `N#Cc1cc(F)cc(C(=O)N[C@H]2CCn3nc(-c4ccnc(C(F)(F)F)c4)cc32)c1` [Compound I-323a, (S)-3-Cyano-5-fluoro-N-(2-(2-(trifluoromethyl)pyridin-4-yl)-5,6-dihydro-4H-pyrrolo[1,2-b]pyrazol-4-yl)benzamide], the pIC50 was over 6.60.

In turn, `COc1cc(-c2cc3n(n2)CCC[C@@H]3NC(=O)c2cc(Cl)cc(C(F)(F)F)c2)ccn1` [Compound I-354a] had a pIC50 of over 6.60.

`CC(C)(C)OC(=O)N[C@@H]1CCc2nn(-c3ccnc(C(F)(F)F)c3)cc21` [Compound I-105b]: the pIC50 was under 6.00.

In turn, `Cn1nc(C(F)(F)F)nc1C(=O)N[C@H]1CCCc2oc(-c3ccnc(C(F)(F)F)c3)nc21` [Compound I-241a, (S)-1-Methyl-3-(trifluoromethyl)-N-(2-(2-(trifluoromethyl)pyridin-4-yl)-4,5,6,7-tetrahydrobenzo[d]oxazol-4-yl)-1H-1,2,4-triazole-5-carboxamide] gave a pIC50 of over 6.60.

The molecule `O=C(N[C@H]1CCCc2oc(-c3ccnc(C(F)(F)F)c3)nc21)c1cc2cccnn2c1` [Compound I-296a, (S)-N-(2-(2-(Trifluoromethyl)pyridin-4-yl)-4,5,6,7-tetrahydrobenzo[d]oxazol-4-yl)pyrrolo[1,2-b]pyridazine-6-carboxamide] had a pIC50 of over 6.60.

`O=C(N[C@H]1CCCCn2nc(-c3ccnc(C(F)(F)F)c3)cc21)c1cc(Cl)cc(C(F)(F)F)c1` [Compound I-387a] gave a pIC50 of over 6.60.

For the molecule `O=C(N[C@H]1CCCc2cnc(-c3ccnc(C(F)(F)F)c3)cc21)c1cccc(C(F)(F)F)c1` [Compound I-392a], the pIC50 is over 6.60.

In turn, `O=C(N[C@H]1CCCc2nnc(-c3ccnc(C(F)(F)F)c3)cc21)c1cc(F)cc(F)c1` [Compound I-453a] showed a pIC50 of under 6.00.

With `O=C(N[C@H]1CCCn2nc(-c3ccnc(C(F)(F)F)c3)cc21)c1cccc(C(F)(F)F)c1` [Compound I-290a, (S)-3-(Trifluoromethyl)-N-(2-(2-(trifluoromethyl)pyridin-4-yl)-4,5,6,7-tetrahydropyrazolo[1,5-a]pyridin-4-yl)benzamide], the pIC50 was over 6.60.

`O=C(N[C@H]1CCCc2oc(-c3cc(C(F)(F)F)ncc3F)nc21)c1cccc(C(F)(F)F)c1` [Compound I-554a, (S)—N-(2-(5-Fluoro-2-(trifluoromethyl)pyridin-4-yl)-4,5,6,7-tetrahydrobenzo[d]oxazol-4-yl)-3-(trifluoromethyl)benzamide] showed a pIC50 of over 6.60.

`Cc1nc(C(=O)N[C@H]2CCn3nc(-c4ccnc(C(C)(F)F)c4)cc32)n(C)n1` [Compound I-206a, (S)-N-(2-(2-(1,1-Difluoroethyl)pyridin-4-yl)-5,6-dihydro-4H-pyrrolo[1,2-b]pyrazol-4-yl)-1,3-dimethyl-1H-1,2,4-triazole-5-carboxamide] had a pIC50 of under 6.00.

`COc1cc(-n2cc3c(n2)CCCC[C@@H]3NC(=O)c2cccc(C)c2)ccn1` [Compound I-376a] had a pIC50 of over 6.60.

The molecule `O=C(N[C@H]1CCCc2nc(-c3ccnc(C4CC4)c3)oc21)c1cccc(C(F)(F)F)c1` [Compound I-171a, (S)-N-(2-(2-Cyclopropylpyridin-4-yl)-4,5,6,7-tetrahydrobenzo[d]oxazol-7-yl)-3-(trifluoromethyl)benzamide] had a pIC50 of over 6.60.
